Experimental findings from article PMC12705620 (Frontiers in Pharmacology, 2025) are described below.

In test [1] the test system is Staphylococcus aureus JAR060131. It is filed as cell-based. To be noted: JAR060131, 18 h. As to the method:
Bactericidal activity was assessed as previously described ([Breij et al., 2018]). Briefly, mid-logarithmic phase bacterial cultures were diluted in RPMI to 1 × 10^7 CFU/mL. For fungicidal assays, fungal cultures were prepared in RPMI supplemented with 1% glucose (Merck) and diluted to 2–5 × 10^5 CFU/mL. For each condition, 10 µL of the suspension was added to 90 µL of peptide-containing RPMI or RPMI supplemented with 50% (v/v) pooled human plasma (hereafter referred to as 50% plasma; final bacterial concentration 1 × 10^6 CFU/mL, final fungal concentration 2–5 × 10^4 CFU/mL. Human plasma from four healthy volunteers (Sanquin, Netherlands) was pooled, and stored at −20 °C until use. Peptides were tested similarly for fungicidal activity, after 18 h of incubation at 37 °C with shaking (120 rpm) under humidified conditions, bacterial and fungal survival was determined by plating 10 µL aliquots onto BA plates. Assays were performed in duplicate in round-bottom polypropylene microtiter plates (Costar) and repeated independently three times. Untreated controls included bacteria exposed to RPMI alone or RPMI with 50% plasma. Bactericidal and fungicidal activity was expressed as the lethal concentration 99.9% (LC99.9), defined as the lowest peptide concentration causing ≥99.9% reduction in numbers of CFU compared to the initial inoculum.

For test [2], the system named is TNF-α production by dTHP-1 macrophages stimulated with UV-inactivated S. aureus JAR060131. Kind of test: Endotoxin neutralization, UV-inactivated S. aureus-stimulated macrophages. It is filed as cell-based. To be noted: MOI 2 with 1 or 2 µM peptide, 4 h, ELISA, versus NT. As to the method:
The endotoxin-neutralizing capacity of the peptides was assessed by measuring tumor necrosis factor-alpha (TNF-α) production by dTHP-1 macrophages. dTHP-1 macrophages were stimulated with either lipopolysaccharide (LPS; E. coli O111:B4; 5 ng/mL, Sigma-Aldrich) or UV-inactivated S. aureus JAR060131 (MOI 2; as described in Section 5.2), in the presence or absence of one or 2 µM peptides. Cells were cultured in serum-free RPMI and incubated for 4 h at 37 °C with 5% CO2. Positive controls consisted of cells stimulated with LPS or UV-S. aureus without peptide treatment (no treatment, NT), and unstimulated cells served as negative controls. After stimulation, cell supernatants were collected, and cytokine levels of TNF-α were quantified using human ELISA kits (R&D Systems, USA) according to the manufacturer’s instructions. Each condition was tested in triplicate.
(In general: ELISA stands for enzyme-linked immunosorbent assay.)

Another test relates to HaCaT keratinocytes. Kind of test: In vitro scratch wound assay. The test is classed as cell-based, human. To be noted: 1 µM peptide (TGF-β 20 ng/mL); for Percentage of wound closure: 60 h (legend: 64 h); for Percentage of wound closure / Rate of cell migration: versus no treatment. As to the method:
Cell migration following injury was assessed using an in vitro scratch assay with the IncuCyte wound maker tool (Sartorius). HaCaT keratinocytes were seeded in 96-well ImageLock plates (Sartorius) at 3 × 10^5 cells/well (100 µL) in DMEM supplemented with 10% FBS and incubated at 37 °C, 5% CO2 for 48 h, with medium change at 24 h, until confluence. Uniform scratches were introduced using the wound maker tool according to the manufacturer’s instructions. After wounding, wells were washed twice with 100 µL PBS to remove cell debris. Cells were then treated with 1 µM peptides in serum-free DMEM, to focus specifically on cell migration from the wound edges. The absence of serum minimizes interference with peptide activity. Transforming growth factor-beta (TGF-β; human; 20 ng/mL; Sigma-Aldrich) and 5% dimethyl sulfoxide (DMSO; Sigma-Aldrich) were used as positive and negative controls, respectively. Additional controls included serum-free DMEM (no-treatment control) and 50% (v/v) acetonitrile in Milli-Q water as solvent control. Wound closure was monitored using the IncuCyte S3 live-cell imaging system (Sartorius) with bright-field microscopy. Images were captured every 6 h for up to 60 h. Image analysis was performed using ImageJ software (version 1.53t, NIH, USA) with the “Wound Healing” plugin, as described by Suarez Arnedo et al. ([Suarez-Arnedo et al., 2020]). Quantitative parameters included wound width (µm), percent wound closure, and migration rate (µm/hour).

Test [3] relates to S. aureus LUH14616 (MRSA). Kind of test: Ex vivo human skin wound infection model. More on the design: species or system Staphylococcus aureus. An excerpt: Human skin from 3 donors was obtained via the Residual Tissue Biobank of the Red Cross Hospital (Beverwijk, Netherlands). The use of these coded, post-operative residual tissue samples was approved by patients through the informed opt-out-plus protocol of the Red Cross Hospital Skin ([Code-of-Conduct-for-Health-Research, 2022]) and processed for an ex vivo wound infection model as described ([Dijksteel et al., 2020]). The Wounded skin grafts were sectioned into approximately 1 cm^2 samples using a sterile scalpel and were decontaminated by immersion in 70% ethanol for 30 min, followed by three PBS washes. Samples were placed dermis-down and wound-side-up on stainless steel grids with central indentations, positioned in 12-well plates, and cultured at the air–liquid interface in DMEM at 37 °C and 5% CO2. To confine reagents to the wound area, a resin barrier (OpalDam; Ultradent) was applied to the wounded area and polymerized using a hand-held UV light (Valo X) for 10 s. The wounds were then topically infected with 10 µL of S. aureus LUH14616 suspension of 1 × 10^7 CFU/mL (final dose: 1 × 10^5 CFU/graft) in PBS for 1 h, followed by topical application of 10 µL of peptide solution for 4 h. Chlorhexidine (0.5% (v/v) in 70% ethanol; Entick B.V.) and PBS were used as positive and negative controls, respectively. After treatment, tissue samples were transferred to polypropylene vials containing 1 mL PBS supplemented with 0.025% (v/v) SPS and a 7 mm stainless steel bead. Homogenization was performed using a MagnaLyser System (Roche) with three 30-s cycles at 7,000 rpm, with 30 s of cooling on ice between cycles. Homogenates were 10-fold serially diluted in PBS, and 100 µL aliquots were plated on BA plates. CFUs were enumerated after overnight incubation at 37 °C.

Setting [4] is: 20 µM and 200 µM topical, 1 h infection, 4 h treatment, versus PBS (Figure 4B).

Bridge positions count the residues as written; N and C are the ends. Square brackets hold non-standard residues; d marks the D form. Peptide text beside a SMILES is read from it. I, II: the chains in the order shown. Dap = NC[C@H](N)C(=O)O; Ahx = NCCCCCC(=O)O

`N=C(N)NCCC[C@H](NC(=O)[C@H](Cc1c[nH]c2ccccc12)NC(=O)[C@H](CCC(N)=O)NC(=O)[C@H](Cc1c[nH]c2ccccc12)NC(=O)[C@H](CCCNC(=N)N)NC(=O)[C@@H](N)CCCNC(=N)N)C(=O)NCCCC[C@H](NC(=O)[C@H](CCCNC(=N)N)NC(=O)[C@H](Cc1c[nH]c2ccccc12)NC(=O)[C@H](CCC(N)=O)NC(=O)[C@H](Cc1c[nH]c2ccccc12)NC(=O)[C@H](CCCNC(=N)N)NC(=O)[C@@H](N)CCCNC(=N)N)C(=O)NCCCCCC(=O)N[C@@H](CSSC[C@H](NC(=O)CCCCCNC(=O)[C@H](CCCCNC(=O)[C@H](CCCNC(=N)N)NC(=O)[C@H](Cc1c[nH]c2ccccc12)NC(=O)[C@H](CCC(N)=O)NC(=O)[C@H](Cc1c[nH]c2ccccc12)NC(=O)[C@H](CCCNC(=N)N)NC(=O)[C@@H](N)CCCNC(=N)N)NC(=O)[C@H](CCCNC(=N)N)NC(=O)[C@H](Cc1c[nH]c2ccccc12)NC(=O)[C@H](CCC(N)=O)NC(=O)[C@H](Cc1c[nH]c2ccccc12)NC(=O)[C@H](CCCNC(=N)N)NC(=O)[C@@H](N)CCCNC(=N)N)C(N)=O)C(N)=O` [LBT] (I: H-RRWQWRK[Ahx]C-NH2 / II: H-RRWQWRK[Ahx]C-NH2 / III: H-RRWQWR / IV: H-RRWQWR; amide I:7-III:C, II:7-IV:C; disulfide I:9-II:9; N-terminus and C-terminus assumed) came in with an LC99.9 in test [1] of 0.47 µM. The “Reduction of TNFα production induced by UV-inactivated S. aureus” value in test [2] is “not observed”. Besides, in the test with HaCaT keratinocytes, the “Percentage of wound closure” value is listed as “significant wound closure” and the “Rate of cell migration” value is “highest migration (p < 0.05)”. The Wound width reduction entry in the test on HaCaT keratinocytes (serum-free DMEM, versus untreated control) was “significantly reduced wound width”. Moreover, in test [3] (setting [4]), the “Reduction of bacterial load (CFU counts)” value was “minimal and non-significant reductions”.
In turn, `N=C(N)NCCC[C@H](NC(=O)[C@H](Cc1c[nH]c2ccccc12)NC(=O)[C@H](CCC(N)=O)NC(=O)[C@H](Cc1c[nH]c2ccccc12)NC(=O)[C@H](CCCNC(=N)N)NC(=O)[C@@H](N)CCCNC(=N)N)C(=O)NC[C@H](NC(=O)[C@H](CCCNC(=N)N)NC(=O)[C@H](Cc1c[nH]c2ccccc12)NC(=O)[C@H](CCC(N)=O)NC(=O)[C@H](Cc1c[nH]c2ccccc12)NC(=O)[C@H](CCCNC(=N)N)NC(=O)[C@@H](N)CCCNC(=N)N)C(=O)NCCCCCC(=O)N[C@@H](CSSC[C@H](NC(=O)CCCCCNC(=O)[C@H](CNC(=O)[C@H](CCCNC(=N)N)NC(=O)[C@H](Cc1c[nH]c2ccccc12)NC(=O)[C@H](CCC(N)=O)NC(=O)[C@H](Cc1c[nH]c2ccccc12)NC(=O)[C@H](CCCNC(=N)N)NC(=O)[C@@H](N)CCCNC(=N)N)NC(=O)[C@H](CCCNC(=N)N)NC(=O)[C@H](Cc1c[nH]c2ccccc12)NC(=O)[C@H](CCC(N)=O)NC(=O)[C@H](Cc1c[nH]c2ccccc12)NC(=O)[C@H](CCCNC(=N)N)NC(=O)[C@@H](N)CCCNC(=N)N)C(N)=O)C(N)=O` [LBT-1] (I: H-RRWQWR[Dap][Ahx]C-NH2 / II: H-RRWQWR[Dap][Ahx]C-NH2 / III: H-RRWQWR / IV: H-RRWQWR; amide I:7-III:C, II:7-IV:C; disulfide I:9-II:9; N-terminus and C-terminus assumed) registered an LC99.9 in test [1] of 0.47 µM. For the same compound, in test [2], the “Reduction of TNFα production induced by UV-inactivated S. aureus” value is listed as “not observed”. The “Percentage of wound closure” value in the test on HaCaT keratinocytes is on record as “significant wound closure”. In addition, the “Rate of cell migration” value in the test with HaCaT keratinocytes is on record as “ns”. Further, the “Reduction of bacterial load (CFU counts)” value in test [3] (setting [4]) is “dose-dependent reduction”; in test [3] (200 µM topical, 4 h treatment, versus PBS (Figure 4B), p < 0.05) it was “significant decrease”; in test [3] (200 µM topical, 4 h treatment, versus untreated control (Figure 4C), p < 0.001), “significantly reduced bacterial load”. The “Reduction of bacterial load after different infection durations” value in test [3] (200 µM for 4 h, started 0.5, 1 or 2 h post-infection (Figure 4D)) was “significantly reduced bacterial load in all groups”. Further, the Effective bactericidal concentration in test [3] (ex vivo wounded human skin, 4 h treatment) amounted to 200 µM.
